# In publication PMC3693846 (Cellular and molecular neurobiology, 2013):
# System: L-type voltage-gated calcium channel (subtype not resolved)
# Format: cell-based
structure (smiles),measurement,value
"CC(C)n1cnc2c(NCCCCCCNC(=O)OC(C)(C)C)nc(NCCO)nc21 [CK59, 2-(2-Hydroxyethylamino)-6-aminohexylcarbamic acid tert-butyl ester-9-isopropylpurine]",% decrease of current at 50 μM,67.47 % decrease of current at 50 μM
